Patent EP0973746B1, “SUBSTITUTED 3-CYANO QUINOLINES” (Wyeth Holdings Corporation, priority 1997, dated 1998)
Values after ≈ are worked out from the molar mass of the structure shown. Values joined by “and” are separate entries in the source; they are usually repeats but may differ in a detail not shown here. Identical values can stand only once. Counter-ions that a name gives are not always drawn. Like-named read-outs stand apart in the source and are kept apart here.

Tests used:
[1] = molecular target: T1, His-tagged cytoplasmic domain of EGFR (Homo sapiens, UniProt P00533); assay: Inhibition of Epidermal Growth Factor Receptor Kinase (EGF-R) using recombinant enzyme; assay type: biochemical;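 note: radiometric kinase assay measuring radiolabeled phosphate transfer from ATP onto the peptide tyrosine by scintillation counting, control is reaction without compound, background subtracted, IC50 from dose-response curve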
T1 construct: containing the EGFR cDNA encoding amino acids 645 - 1186 preceded by Met-Ala-(His)6; made in house; host or cells: Sf9 cells, recombinant baculovirus vHcEGFR52

A431 = assay: Inhibition of cancer cell growth as measured by cell number, A431; assay type: cell-based, human; conditions: Table 8; for IC50: Homo sapiens, A-431, 48 h;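 for all read-outs here: human A431 line, picked because it overexpresses epidermal growth factor receptor (EGFR)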
Excerpt: (§1) The cell lines were chosen since they overexpressed epidermal growth factor receptor (EGFR) (i.e. A431) or HER2/neu (SKBR3), or had little to no expression of the these receptors (SW620, LOX, MCF7).

SKBR3 = assay: Inhibition of cancer cell growth as measured by cell number, SKBR3; assay type: cell-based, human; conditions: Table 8; for IC50: Homo sapiens;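 for all read-outs here: SK-BR-3 cells were selected as a line overexpressing HER2/neu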
Excerpt: as §1

SW620 = assay: Inhibition of cancer cell growth as measured by cell number, SW620; assay type: cell-based, human; conditions: Table 8; for IC50: Homo sapiens, SW-620, 48 h;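 for all read-outs here: SW620 was included as a cell line with little or no EGFR or HER2/neu expression, in contrast to receptor-overexpressing lines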
Excerpt: as §1

[2] = molecular target: recombinant human MEK 1 (MAPKK) and recombinant human ERK2 (MAPK); assay: Mitogen Activated Protein Kinase (MAPK) assay, two component coupled MEK 1 / ERK2; assay type: biochemical; conditions: separate entries for the same compound = evaluated more than one time;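 note: MEK 1-activated ERK2 phosphorylates MBP or Myc peptide with 33P-ATP, filter capture and scintillation counting, inhibitor preincubated with ERK2 30 min at 0 °C, inhibition relative to uninhibited control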
Description: To evaluate inhibitors of the MAP (mitogen activated protein) kinase a two component coupled standard pharmacological test procedure, which measures phosphorylation of a serine/threonine residue in an appropriate sequence in the substrate in the presence and absence of a putative inhibitor, was used. Recombinant human MEK 1 (MAPKK) was first used to activate recombinant human ERK2 (MAPK) and the activated MAPK (ERK) was incubated with substrate (MBP peptide or MYC peptide) in the presence of ATP, Mg^+2 and radiolabeled ^33P ATP. The phosphorylated peptide was captured on a P 81 phosphocellulose filter (paper filter or embedded in microtiter plate) washed and counted by scintillation methods.
The peptide substrates used in the assay are MBP, peptide substrate ([sequence]), or synthetic Myc substrate, ([sequence]•5 TFA. The recombinant enzymes used were prepared as GST fusion proteins of human ERK 2 and human MEK 1. Inhibitor samples were prepared as 10X stocks in 10% DMSO and an appropriate aliquot was used to deliver either 10 ug/ml for a single point screening dose or 100, 10, 1, and 0.1 uM final concentration for a dose response curve. Final DMSO concentrations were less than or equal to 1%.
The reaction was run as follows in 50 mM Tris kinase buffer, pH 7.4 in a reaction volume of 50 ul. The appropriate volume of kinase buffer and inhibitor sample was added to the tube. Appropriate dilution of enzyme was delivered to give 2-5 ug recombinant MAPK (Erk ) per tube. The inhibitor was incubated with MAPK (Erk) for 30 min at 0 deg. […] Recombinant Mek (MAPKK) ( 0.5-2.5 ug) or fully activated Mek (0.05-0.1 units) was added to activate the Erk and incubated for 30 min at 30° C. […] Samples were incubated at 30°C for 30 minutes and the reaction was stopped by adding 25 µl of ice cold 10 %TCA .After samples were chilled on ice for 30 min, 20 µl of sample was transferred onto P 81 phosphocellulose filter paper or appropriate MTP with embedded P 81 filter. Filter papers or MTP were washed 2 times with a large volume of 1% acetic acid, then 2 times with water. The filters or MTP were briefly air dried before addition of scintillant and samples were counted in the appropriate scintillation counter set up for reading ^33P isotope.
The raw data was captured as cpm. Sample replicates were averaged and corrected for background count. Mean cpm data was tabulated by group and % inhibition by a test compound was calculated as (corrected cpm control- corrected. cpm sample/control) X 100 = % inhibition.

[3] = recombinant enzyme, RR-SRC peptide, average of the number of tests, read-out: IC50
[4] = cell number, Sulforhodamine B, 48 hours exposure, read-out: IC50 A431
[5] = SK-BR-3, cell number, Sulforhodamine B, 48 hours exposure, read-out: IC50 SKBR3
[6] = cell number, Sulforhodamine B, 48 hours exposure, read-out: IC50 SW620
[7] = cell number, Sulforhodamine B, 48 hours exposure
[8] = read-out: IC50 A431, cell number, Sulforhodamine B, 48 hours exposure
[9] = SK-BR-3, 48 h, read-out: IC50 SKBR3, cell number, Sulforhodamine B, 48 hours exposure
[10] = read-out: IC50 SW620, cell number, Sulforhodamine B, 48 hours exposure

| Compound | IC50 [1, 3] [nM] | IC50 (A431; [8]) [µg/mL] | IC50 (SKBR3; [9]) [µg/mL] | IC50 (SW620; [10]) [µg/mL] | IC50 [2] [nM] | further results |
| --- | --- | --- | --- | --- | --- | --- |
| COc1cc2ncc(C#N)c(Nc3cccc(Br)c3)c2cc1NC(=O)C=CCCl [Example 347, N-{4-[(3-Bromophenyl)amino]-3-cyano-7-methoxy-6-quinolinyl} -4-chloro-2-butenamide] | 40 | – | – | – | – | IC50 (A431; [4]): 0.04 µg/mL (≈ 0.0848 µM); IC50 (SKBR3; [5]): 0.2 µg/mL (≈ 0.424 µM); IC50 (SW620; [6]): 0.2 µg/mL (≈ 0.424 µM) |
| COc1cc2ncc(C#N)c(Nc3cccc(Br)c3)c2cc1NC(=O)C=CCN(C)C [Example 198, 4-Dimethylamino-but-2-enoic acid [4-(3-brom-phenylamino)-3-cyano-7-methoxy-quinolin-6yl]-amide] | – | – | – | – | – | IC50 [1]: 0.008 nM; IC50 A431 (A431; [7]): 0.002 µg/mL (≈ 0.00416 µM); IC50 SKBR3 (SKBR3; [7]): 0.03 µg/mL (≈ 0.0625 µM); IC50 SW620 (SW620; [7]): 0.4 µg/mL (≈ 0.833 µM) |
| CCN(CC)CC=CC(=O)Nc1cc2c(Nc3cccc(Br)c3)c(C#N)cnc2cc1OC [Example 199, 4-Diethylamino-but-2-enoic acid [4-(3-bromo-phenylamino)-3-cyano-7-methoxy-quinolin-6-yl]-amide] | 0.5 | – | – | – | – | IC50 (A431; [4]): 0.048 µg/mL (≈ 0.0944 µM); IC50 (SKBR3; [5]): 0.076 µg/mL (≈ 0.149 µM); IC50 (SW620; [6]): 0.433 µg/mL (≈ 0.852 µM) |
| COc1cc2ncc(C#N)c(Nc3ccc(F)c(Br)c3)c2cc1NC(=O)C=CCN1CCOCC1 [Example 175, N-{4-[(3-Bromo-4-fluorophenyl)amino]-3-cyano-7-methoxy-6-quinolinyl}-4-morpholino-2-butenamide] | 300 | 0.144 (≈ 0.266 µM) | 0.18 (≈ 0.333 µM) | 4.95 (≈ 9.16 µM) | – | – |
| CCN(CC)CC#CC(=O)Nc1ccc2ncc(C#N)c(Nc3ccc(F)c(Cl)c3)c2c1 [Example 189, N-[4-[(3-Chloro-4-fluorophenyl)amino]-3-cyano-6-quinolinyl]-4-diethylamino-2-butynamide] | 2 | 0.04 (≈ 0.0889 µM) | 0.03 (≈ 0.0667 µM) | 0.1 (≈ 0.222 µM) | 50000 | – |
| COc1cc2c(Nc3ccc(O)cc3C)c(C#N)cnc2cc1OCCCN1CCOCC1 [Example 312, 4-(4-Hydroxy-2-methyl-phenylamino)-6-methoxy-7-(3-morpholin-4-yl-propoxy)-quinoline-3-carbonitrile] | 50 | – | – | – | > 100000 | IC50 (A431; [4]): 0.491 µg/mL (≈ 1.09 µM); IC50 (SKBR3; [5]): 2.25 µg/mL (≈ 5.03 µM); IC50 (SW620; [6]): 3.53 µg/mL (≈ 7.88 µM) |
| COc1cccc(Nc2c(C#N)cnc3ccc(NC(=O)C#CCN4CCCCC4)cc23)c1 [Example 140, N-{3-cyano-4-[(3-methoxyphenyl)amino]-6-quinolinyl}-4-piperidino-2-butynamide] | 0.6 | 0.02 (≈ 0.0455 µM) | 0.02 (≈ 0.0455 µM) | 0.1 (≈ 0.228 µM) | > 100000 | – |
| CCOc1cc2ncc(C#N)c(NCc3ccc(OC)c(OC)c3)c2cc1OCC [Example 63, 4-(3,4-Dimethoxyphenylmethylamino)-6,7-diethoxy-3-quinolinecarbonitrile] | ≥ 10000 | – | – | – | > 100000 | IC50 (A431; [4]): 0.095 µg/mL (≈ 0.233 µM); IC50 (SKBR3; [5]): 0.144 µg/mL (≈ 0.353 µM); IC50 (SW620; [6]): 0.208 µg/mL (≈ 0.51 µM) |
| CC#CC(=O)Nc1ccc2ncc(C#N)c(Nc3ccc(F)c(Cl)c3)c2c1 [Example 143, N-{4-[(3-Chloro-4-fluoro-phenyl)amino]-3-cyano-6-quinolinyl}-2-butynamide] | 30 | – | – | – | 40000 | – |
| C=CC(=O)Nc1ccc2ncc(C#N)c(Nc3cccc(C#N)c3)c2c1 [Example 160, N-[3-Cyano-4-[(3-cyanophenyl)amino]-6-quinolinyl}-2-propenamide] | 2 | 0.2 (≈ 0.589 µM) | 0.5 (≈ 1.47 µM) | 2.3 (≈ 6.78 µM) | 30000 | – |
| COc1cc2ncc(C#N)c(Nc3cccc(N)c3)c2cc1OC [Example 264, 4-(3-Aminophenylamino)-6,7-dimethoxy-3-quinolinecarbonitrile] | 500 | – | – | – | 3000 | – |
| CNCC=CC(=O)Nc1ccc2ncc(C#N)c(Nc3cccc(Br)c3)c2c1 [Example 101, 4-Methylamino-but-2-enoic acid [4-(3-bromophenylamino)-3-cyano-quinolin-6-yl]-amide] | 100 | – | – | – | 20000 | IC50 (A431; [4]): > 10 µg/mL; IC50 (SKBR3; [5]): > 10 µg/mL; IC50 (SW620; [6]): > 10 µg/mL |
| N#Cc1cnc2ccc(NC(=O)/C=C/Cl)cc2c1Nc1cccc(Br)c1 [Example 326, N-[4-(3-Bromo-phenylamino)-3-cyano-quinolin-6-yl]-3-chloro-(E) acrylamide] | 0.05 | – | – | – | 35000 | – |
| N#Cc1cccc(Nc2c(C#N)cnc3ccc(NC(=O)C#CCN4CCCCC4)cc23)c1 [Example 161, N-{3-Cyano-4-[(3-cyanophenyl)amino]-6-quinolinyl}-4-piperidino-2-butynamide] | 0.35 | 0.1 (≈ 0.23 µM) | 0.04 (≈ 0.0921 µM) | 0.2 (≈ 0.46 µM) | 55000 | – |
| CCN(CC)CC=CC(=O)Nc1cc2c(Nc3ccc(F)c(Br)c3)c(C#N)cnc2cc1OC [Example 209, 4-Diethylamino-but-2-enoic acid [4-(3-bromo-4-fluorophenylamino)-3-cyano-7-methoxy-quinolin-6-yl]-amide] | 5 | 0.113 (≈ 0.215 µM) | 0.048 (≈ 0.0912 µM) | 0.38 (≈ 0.722 µM) | 9000 | – |
| CCN(CC)CC=CC(=O)Nc1ccc2ncc(C#N)c(Nc3ccc(F)c(Cl)c3)c2c1 [Example 146, N-{4-[(3-Chloro-4-fluorophenyl)amino]-3-cyano-6-quinoliny}-4-diethylamino-2-butenamide] | 30 | – | – | – | 6000 | IC50 (A431; [4]): 0.03 µg/mL (≈ 0.0664 µM); IC50 (SKBR3; [5]): 0.03 µg/mL (≈ 0.0664 µM); IC50 (SW620; [6]): 0.6 µg/mL (≈ 1.33 µM) |
| C=C(C)C(=O)Nc1ccc2ncc(C#N)c(Nc3cccc(Br)c3)c2c1 [Example 383, N-[4-(3-Bromophenylamino)-3-cyanoquinolin-6-yl]-2-methylacrylamide] | 7 | – | – | – | > 100000 | – |
| CCN(CC)CC=CC(=O)Nc1ccc2ncc(C#N)c(Nc3ccc(F)c(Br)c3)c2c1 [Example 173, N-{4-[(3-Bromo-4-fluorophenyl)amino]-3-cyano-6-quinolinyl}-4-diethylamino-2-butenamide] | 30 | – | – | – | 8000 | – |
| 4-Dimethylamino-but-2-enoic acid [4-(3-bromophenylamino)-3-cyano-quinolin-6-yl]-amide [Example 99] | 30 | – | – | – | – | IC50 A431 (A431; [7]): 0.3 µg/mL and 0.159 µg/mL; IC50 SKBR3 (SKBR3; [7]): 0.1 µg/mL and 0.078 µg/mL |
| CN(C)C/C=C\C(=O)Nc1ccc2ncc(C#N)c(Nc3ccc(F)c(Cl)c3)c2c1 [Example 184, N-[4-[(3-Chloro-4-fluorophenyl)amino]-3-cyano-6-quinolinyl]-4-dimethylamino-(Z)-2-butenamide] | 1700 | 0.158 (≈ 0.373 µM) | 0.3 (≈ 0.708 µM) | 0.463 (≈ 1.09 µM) | – | – |
| CC#CC(=O)Nc1ccc2ncc(C#N)c(Nc3ccc(Sc4ccccc4)c(Cl)c3)c2c1 [Example 157] | 45 | 3.26 (≈ 6.95 µM) | 2.6 (≈ 5.55 µM) | 4.17 (≈ 8.89 µM) | 90000 | – |
| CN(C)CC=CC(=O)Nc1ccc2ncc(C#N)c(Nc3ccc(F)c(Br)c3)c2c1 [Example 172, N-{4-[(3-Bromo-4-fluorophenyl)amino]-3-cyano-6-quinolinyl} -4-dimethylamino-2-butenamide] | 5 | – | – | – | 90000 | IC50 (A431; [4]): 0.255 µg/mL (≈ 0.544 µM); IC50 (SKBR3; [5]): 0.067 µg/mL (≈ 0.143 µM); IC50 (SW620; [6]): 1.59 µg/mL (≈ 3.4 µM) |
| C#Cc1cccc(Nc2c(C#N)cnc3ccc(NC(=O)C#CCN4CCCCC4)cc23)c1 [Example 166, N-{3-cyano-4-[(3-ethynylphenyl)amino]-6-quinolinyl)-4-piperidino-2-butynamide] | 20 | 0.02 (≈ 0.0461 µM) | 0.02 (≈ 0.0461 µM) | 0.04 (≈ 0.0923 µM) | > 100000 | – |
| COC/C=C\C(=O)Nc1ccc2ncc(C#N)c(Nc3ccc(F)c(Cl)c3)c2c1 [Example 185, N-[4-[(3-Chloro-4-fluorophenyl)amino]-3-cyano-6-quinolinyl]-4-methoxy-(Z)-2-butenamide] | ≥ 10000 | – | – | – | – | IC50 (A431; [4]): 0.34 µg/mL (≈ 0.828 µM); IC50 (SKBR3; [5]): 1.11 µg/mL (≈ 2.7 µM); IC50 (SW620; [6]): 2.18 µg/mL (≈ 5.31 µM) |
| COc1cc2ncc(C#N)c(Nc3cccc(Br)c3)c2cc1NC(=O)C#CCN(C)C [Example 227, 4-Dimethylamino-but-2-ynoic acid [4-(3-bromo-phenylamino)-3-cyano-7-methoxy-quinol-6-yl]-amide] | 10 | 0.02 (≈ 0.0418 µM) | 0.2 (≈ 0.418 µM) | 0.1 (≈ 0.209 µM) | – | – |
| CC#CC(=O)Nc1ccc2ncc(C#N)c(Nc3cccc(C)c3)c2c1 [Example 132, N-{3-Cyano-4-[(3-methylphenyl)amino]-6-quinolinyl}-2-butynamide] | 600 | – | – | – | > 100000 | – |
| Cc1cccc(Nc2c(C#N)cnc3ccc(N)cc23)c1 [Example 133, 6-Amino-4-[(3-methylphenyl)amino]-3-quinolinecarbonitrile] | 6 | – | – | – | > 100000 | – |
| CN(C)c1ccc2ncc(C#N)c(Nc3cccc(Br)c3)c2c1 [Example 395, 4-(3-Bromophenylamino)-6-dimethylaminoquinoline-3-carbonitrile Hydrochloride] | 500 | – | – | – | 15000 | – |
| N#Cc1cnc2ccc(N)cc2c1Nc1cccc(I)c1 [Example 130, 6-Amino-4-[(3-iodophenyl)amino]-3-quinolinecarbonitrile] | 100 | – | – | – | > 100000 | – |
| C=CC(=O)Nc1ccc2ncc(C#N)c(Nc3ccc(F)c(Cl)c3)c2c1 [Example 144, N-{4-[(3-Chloro-4-fluorophenyl)amino]-3-cyano-6-quinolinyl}-2-propenamide] | 65 | – | – | – | 40000 | – |
